From ChEMBL document CHEMBL1153863, “Evaluation of the local anaesthetic activity of 3-aminobenzo[d]isothiazole derivatives using the rat sciatic nerve model” (2009) come the findings set out here.

Each structure is given as a SMILES string.

Holding throughout (assay type): functional
Assay [1] can be described thus: Local anaesthetic activity in rat sciatic nerve assessed as time required to decrease compound action potential to 100 % at 1.5%.
Assay [2] can be described thus: Local anaesthetic activity in rat sciatic nerve assessed as time required to decrease compound action potential to 50 %.
Assay [3] in a line: Local anaesthetic activity in rat sciatic nerve assessed as time required to decrease compound action potential to recover to 50 % at 1.5%.
Assay [4] in a line: Local anaesthetic activity in rat sciatic nerve assessed as time required to decrease compound action potential to 50 % relative to Lidocaine. Also noted: scale not given: the % may be the effect or the level left.
Assay [5] in a line: Local anaesthetic activity in rat sciatic nerve assessed as time required to decrease compound action potential to 100 %.
Assay [6] is described as follows: Local anaesthetic activity in rat sciatic nerve assessed as time required to decrease compound action potential to recover to 50 %.
Assay [7] in a line: Local anaesthetic activity in rat sciatic nerve assessed as time required to decrease compound action potential to 100 % relative to Lidocaine. On the set-up: scale not given: the % may be the effect or the level left.
Assay [8] can be described thus: Local anaesthetic activity in rat sciatic nerve assessed as vitality time.
A short description of assay [9]: Local anaesthetic activity in rat sciatic nerve assessed as vitality time at 1.5%.
Assay [10] can be described thus: Local anaesthetic activity in rat sciatic nerve assessed as time required to decrease compound action potential to 50 % at 1.5% relative to Lidocaine. Also noted: scale not given: the % may be the effect or the level left.
Assay [11] is described as follows: Local anaesthetic activity in rat sciatic nerve assessed as time required to decrease compound action potential to 100 % at 1.5% relative to Lidocaine. On the set-up: scale not given: the % may be the effect or the level left.
A short description of assay [12]: Local anaesthetic activity in rat sciatic nerve assessed as time required to decrease compound action potential to 50 % at 1.5%.

With `CCNCC(=O)Nc1nsc2ccccc12`, the IT100 in assay [1] is recorded as 49.9 min; in assay [5], 24.2 min. Also, the IT50 in assay [2] is 5 min; in assay [12], 11.5 min. In addition, the values for the RT50 in [3] and in assay [6] were 135 min and 76 min, respectively. The Activity is recorded as 62.8% in assay [4], 57.9% in assay [7], 27.3% in assay [10] and 28.1% in [11]. Besides, the figures for the VT50 in [8] and in [9] were 600 min and 658 min, respectively.
As to `O=C(CN1CCOCC1)Nc1nsc2ccccc12`, the IT100 in assay [1] is 19 min; in assay [5] it was 10 min. In addition, the values for the IT50 in assay [2] and in assay [12] were 5.5 min and 8.1 min, respectively. Moreover, the RT50 in [3] is given as 40 min; in assay [6] it was 88 min. For the same molecule, the Activity in [4] is listed as 57.1%; in assay [7] it was 140%; in assay [10] it was 26.2%; in [11] it was 26%. Besides, the VT50 in assay [8] was determined as 511 min; in assay [9] it was 666.7 min.
